From patent publication US6384048B1, “Imidazonaphthyridines” (Byk Gulden Lomberg Chemische Fabrik GmbH, priority 1998, dated 2002) come the findings set out here.

The test system of data set [1] is pentagastrin-stimulated acid secretion of the perfused rat stomach. Briefly: Secretion-inhibiting action on the perfused rat stomach (pentagastrin-stimulated acid secretion, in vivo). The conditions noted are these: anesthetized CD rat, dose 3 μmol/kg i.v. The source says:
Testing of the Secretion-inhibiting Action on the Perfused Rat Stomach
In Table A which follows, the influence of the compounds according to the invention on the pentagastrin-stimulated acid secretion of the perfused rat stomach after intravenous administration in vivo is shown.
The abdomen of anesthetized rats (CD rat, female, 200-250 g; 1.5 g/kg i.m. urethane) was opened after tracheotomy by a median upper abdominal incision and a PVC catheter was fixed transorally in the esophagus and another via the pylorus such that the ends of the tube just projected into the gastric lumen. The catheter leading from the pylorus led outwards into the right abdominal wall through a side opening.
After thorough rinsing (about 50-100 ml), warm (37° C.) physiological NaCl solution was continuously passed through the stomach (0.5 ml/min, pH 6.8-6.9; Braun-Unita 1). The pH (pH meter 632, glass electrode EA 147; φ=5 mm, Metrohm) and, by titration with a freshly prepared 0.01 N NaOH solution to pH 7 (Dosimat 665 Metrohm), the secreted HCl were determined in the effluent in each case collected at an interval of 15 minutes.
The gastric secretion was stimulated by continuous infusion of […] (=1.65 ml/h) of i.v. pentagastrin (left femoral vein) about 30 min after the end of the operation (i.e. after determination of 2 preliminary fractions). […]

A word on the melting point: it is the temperature, or range, at which the solid turns liquid. The compound `CSCCO[C@@H]1c2ccn3c(C)c(C)nc3c2N[C@H](c2ccccc2)[C@H]1O` [Example 1, (7R,8R,9R)-2,3-dimethyl-8-hydroxy-7-(2-methylthioethyloxy)-9-phenyl-7,8,9,10-tetrahydroimidazo[1,2-h][1,7]naphthyridine] displayed a melting point of 118 to 119 °C. In addition, the “Inhibition of acid secretion” value in data set [1] came to 100%.

The compound `CSCCO[C@H]1c2ccn3c(C)c(C)nc3c2N[C@H](c2ccccc2)[C@H]1O` [Example 2, (7S,8R,9R)-2,3-dimethyl-8-hydroxy-7-(2-methylthioethyloxy)9-phenyl-7,8,9,10-tetrahydroimidazo[1,2-h][1,7]naphthyridine] came in with a melting point of 109 to 110 °C.

Compound `Cc1nc2c3c(ccn2c1C)[C@@H](OCC[S+](C)[O-])[C@H](O)[C@@H](c1ccccc1)N3` (stereo partly drawn) [Example 3, (7R,8R,9R)-2,3-dimethyl-8-hydroxy-7-(2-methylsulphinylethoxy)-9phenyl-7,8,9,10-tetrahydroimidazo[1,2-h][1,7]naphthyridine] yielded a melting point of 105 to 106 °C.

For the compound `Cc1nc2c3c(ccn2c1C)[C@H](OCC[S+](C)[O-])[C@H](O)[C@@H](c1ccccc1)N3` (stereo partly drawn) [Example 4, (7S,8R,9R)-2,3-dimethyl-8-hydroxy-7-(2-methylsulphinylethoxy)-9-phenyl-7,8,9,10-tetrahydroimidazo[1,2-h][1,7]naphthyridine], the melting point lay within 85 to 87 °C.

The compound `CCS[C@@H]1c2ccn3c(C)c(C)nc3c2N[C@H](c2ccccc2)[C@H]1O` [Example 5, (7R,8R,9R)-2,3dimethyl-8-hydroxy-7-(ethylthio)-9-phenyl-7,8,9,10-tetrahydro-imidazo[1,2-h][1,7]naphthyridine] registered a melting point of 220 to 223 °C. In addition, the “Inhibition of acid secretion” value in data set [1] was found to be 100%.

Consider `CCS[C@H]1c2ccn3c(C)c(C)nc3c2N[C@H](c2ccccc2)[C@H]1O` [Example 6, (7S,8R,9R)-2,3-dimethyl-8-hydroxy-7-(ethylthio)-9-phenyl-7,8,9,10-tetrahydro-imidazo[1,2-h][1,7]naphthyridine], for which the melting point lay in the range of 235 to 236 °C.
